Earlier results in patent US9199026B2, “Modular extracorporeal systems and methods for treating blood-borne diseases” (SOMERSET GROUP ENTERPRISES, INC., priority 2011, dated 2015).
Where two headings read alike, the source gives them in different places.

Experiments:
[1] = not given; remark: listed apart in the source
[2] = not given; remark: listed apart in the source
[3] = system: bacteria; details: for activity (bactericidal / static): second line of the cell pair 'Spectrum; for Spectrum: first line of the cell pair 'Spectrum, activity'

| Compound | Percent removed By hemodialysis (in vivo) | Percent removed By CAPD ([1]; in vivo) | further results |
| --- | --- | --- | --- |
| Nc1nc(NC2CC2)c2ncn([C@H]3C=C[C@@H](CO)C3)c2n1 [Abacavir] | 24% | – | – |
| CC1(C)S[C@@H]2[C@H](/N=C/N3CCCCCC3)C(=O)N2[C@H]1C(=O)O [Amdinocillin] | 32-70% | Negligible (<4%) | – |
| CC1(C)S[C@@H]2[C@H](NC(=O)[C@H](N)c3ccc(O)cc3)C(=O)N2[C@H]1C(=O)O [Amoxicillin] | 30% | – | – |
| CC[C@H]1OC(=O)[C@H](C)[C@@H](O[C@H]2C[C@@](C)(OC)[C@@H](O)[C@H](C)O2)[C@H](C)[C@@H](O[C@@H]2O[C@H](C)C[C@H](N(C)C)[C@H]2O)[C@](C)(O)C[C@@H](C)CN(C)[C@H](C)[C@@H](O)[C@]1(C)O [Azithromycin] | – | – | pKa ([2]; no group stated): 8.1 |
| C[C@@H](O)[C@H]1C(=O)N2C(C(=O)[O-])=C(SC3Cn4cnc[n+]4C3)[C@H](C)[C@H]12 (stereo partly shown) [Biapenem] | 90% | – | – |
| Cc1nnc(SCC2=C(C(=O)O)N3C(=O)[C@@H](NC(=O)Cn4cnnn4)[C@H]3SC2)s1 [Cefazolin] | – | – | Percent removed By hemodialysis (hemodialysis): 50%; Percent removed By CAPD ([1]; CAPD): 20% |
| CO/N=C(\C(=O)N[C@@H]1C(=O)N2C(C(=O)[O-])=C(C[N+]3(C)CCCC3)CS[C@H]12)c1csc(N)n1 [Cefipime] | – | – | Percent removed By hemodialysis (hemodialysis): 40-70%; Percent removed By CAPD ([1]; CAPD): 26% |
| CO[C@@]1(NC(=O)CSCC#N)C(=O)N2C(C(=O)O)=C(CSc3nnnn3C)CS[C@@H]21 [Cefmetazole] | 60% | – | – |
| NC(=O)c1cc[n+](CC2=C(C(=O)O)N3C(=O)[C@@H](NC(=O)[C@@H](c4ccccc4)S(=O)(=O)[O-])[C@H]3SC2)cc1 [Cefsulodin] | – | – | Percent removed By hemodialysis (hemodialysis): 60% |
| CO/N=C(\C(=O)N[C@@H]1C(=O)N2C(C(=O)O)=C(CSc3nc(=O)c(=O)[nH]n3C)CS[C@H]12)c1csc(N)n1 [Ceftriaxone sodium] | – | – | pKa ([2]; (NH2)): 3.2 |
| CO/N=C(\C(=O)N[C@@H]1C(=O)N2C(C(=O)O)=C(COC(N)=O)CS[C@H]12)c1ccco1 [Cefuroxime sodium] | – | – | pKa ([2]; no group stated): 2.5 |
| CC(=O)OCC1=C(C(=O)O)N2C(=O)[C@@H](NC(=O)CSc3ccncc3)[C@H]2SC1 [Cephapirin] | – | – | Percent removed By hemodialysis (hemodialysis): 20% |
| Nc1ccn(C[C@@H](CO)OCP(=O)(O)O)c(=O)n1 [Cidofovir] | – | – | Percent removed By hemodialysis (hemodialysis): 50%; Percent removed By CAPD ([1]; CAPD): Negligible |
| O=C(O)c1cn(C2CC2)c2cc(N3CCNCC3)c(F)cc2c1=O [Ciprofloxalin] | – | – | activity (bactericidal / static) [3]: bactericidal |
| CCCCCCCCCC(=O)N[C@@H](Cc1c[nH]c2ccccc12)C(=O)N[C@H](CC(N)=O)C(=O)N[C@@H](CC(=O)O)C(=O)N[C@@H]1C(=O)NCC(=O)N[C@@H](CCCN)C(=O)N[C@@H](CC(=O)O)C(=O)N[C@H](C)C(=O)N[C@@H](CC(=O)O)C(=O)NCC(=O)N[C@H](CO)C(=O)N[C@@H]([C@H](C)CC(=O)O)C(=O)N[C@@H](CC(=O)c2ccccc2N)C(=O)O[C@@H]1C [Daptomycin] | – | – | Spectrum [3]: Gram positive,; activity (bactericidal / static) [3]: bactericidal |
| C[C@@H](O)[C@H]1C(=O)N2C(C(=O)O)=C(SCCN=CN)C[C@H]12 [Imipenem] | 80-90% | Negligible | – |

| Compound | Percent removed By hemodialysis (in vivo) | Percent removed By CAPD ([1]; in vivo) | further results |
| --- | --- | --- | --- |
| NNC(=O)c1ccncc1 [Isoniazid] | 75% | – | – |
| CC(=O)NC[C@H]1CN(c2ccc(N3CCOCC3)c(F)c2)C(=O)O1 [Linezolid] | – | – | Percent removed By hemodialysis (hemodialysis): 33% |
| C[C@@H](O)[C@H]1C(=O)N2C(C(=O)O)=C(S[C@@H]3CN[C@H](C(=O)N(C)C)C3)[C@H](C)[C@H]12 [Meropenem] | 50-70% | – | – |
| CC1(C)S[C@@H]2[C@H](NC(=O)[C@H](NC(=O)N3CCN(S(C)(=O)=O)C3=O)c3ccccc3)C(=O)N2[C@H]1C(=O)O [Mezlocillin] | 20-25% | 24% | – |
| CO[C@@]1(NC(=O)C(C(=O)O)c2ccc(O)cc2)C(=O)N2C(C(=O)O)=C(CSc3nnnn3C)CO[C@@H]21 (stereo partly shown) [Moxalactam] | 30-50% | Negligible (15-20%) | – |
| Nc1ccc(C(=O)O)c(O)c1 [Para-aminosalicylic Acid] | – | – | Percent removed By hemodialysis (hemodialysis): 50% |
| CC1(C)S[C@@H]2[C@H](NC(=O)Cc3ccccc3)C(=O)N2[C@H]1C(=O)O [Penicillin G] | – | – | pKa ([2]; no group stated): 2.8 |
| CN[C@@H]1[C@H](O)[C@H](NC)[C@H]2O[C@@]3(O)C(=O)C[C@@H](C)O[C@H]3O[C@@H]2[C@H]1O [Spectinomycin] | 50% | – | – |
| CO[C@@]1(NC(=O)C(C(=O)O)c2ccsc2)C(=O)N2[C@@H](C(=O)O)C(C)(C)S[C@@H]21 (stereo partly shown) [Temocillin] | – | – | Percent removed By hemodialysis (hemodialysis): 50%; Percent removed By CAPD ([1]; CAPD): Negligible (6%) |
| NC[C@H]1O[C@H](O[C@H]2[C@H](O)[C@@H](O[C@H]3O[C@H](CO)[C@@H](O)[C@H](N)[C@H]3O)[C@H](N)C[C@@H]2N)[C@H](N)C[C@@H]1O [Tobramycin] | – | – | Spectrum [3]: Gram negative,; activity (bactericidal / static) [3]: bactericidal |
| COc1cc(Cc2cnc(N)nc2N)cc(OC)c1OC [Trimethoprim] | 50% | Negligible (7%) | – |
| N[C@@H]1[C@H]2CN(c3nc4c(cc3F)c(=O)c(C(=O)O)cn4-c3ccc(F)cc3F)C[C@@H]12 [Trovafloxacin] | – | – | Spectrum [3]: Broad,; activity (bactericidal / static) [3]: bactericidal |
| Gentamycin | – | – | Spectrum [3]: Gram negative,; activity (bactericidal / static) [3]: bactericidal |
| Penicillin | – | – | Percent removed By hemodialysis (hemodialysis): 50% |
| Polymixin B | – | – | Spectrum [3]: G−,; activity (bactericidal / static) [3]: bactericidal |

More lines, main results first:

| Percent removed By hemodialysis (in vivo) | Percent removed By CAPD ([1]; in vivo) | Compound | further results |
| --- | --- | --- | --- |
| 50% | – | CC1(C)S[C@@H]2[C@H](NC(=O)C(C(=O)O)c3ccccc3)C(=O)N2[C@H]1C(=O)O (stereo partly shown) [Carbenicillin] | – |
| 33% | – | N[C@@H](C(=O)N[C@@H]1C(=O)N2C(C(=O)O)=C(Cl)CS[C@H]12)c1ccccc1 [Cefaclor] | – |
| 16-51% | Negligible (<10%) | CO/N=C(\C(=O)N[C@@H]1C(=O)N2C(C(=O)O)=C(CSc3nnnn3C)CS[C@H]12)c1csc(N)n1 [Cefmenoxime] | – |
| 50% | Negligible (15%) | CO/N=C(\C(=O)N[C@@H]1C(=O)N2C(C(=O)O)=C(CSc3nc(C)c(CC(=O)O)s3)CS[C@H]12)c1csc(N)n1 [Cefodizime] | – |
| 20-50% | Negligible | NCc1ccccc1CC(=O)N[C@@H]1C(=O)N2C(C(=O)O)=C(CSc3nnnn3CC(=O)O)CS[C@H]12 [Ceforanide] | – |
| 50% | Negligible | CO[C@@]1(NC(=O)Cc2cccs2)C(=O)N2C(C(=O)O)=C(COC(N)=O)CS[C@@H]21 [Cefoxitin] | – |
| 32-48% | Negligible (12%) | CO/N=C(\C(=O)N[C@@H]1C(=O)N2C(C(=O)[O-])=C(C[n+]3cccc4c3CCC4)CS[C@H]12)c1csc(N)n1 [Cefpirome] | – |
| 50% | – | COCC1=C(C(=O)O)N2C(=O)[C@@H](NC(=O)/C(=N\OC)c3csc(N)n3)[C@H]2SC1 [Cefpodoxime] | – |
| 55% | – | CC=CC1=C(C(=O)O)N2C(=O)[C@@H](NC(=O)[C@H](N)c3ccc(O)cc3)[C@H]2SC1 [Cefprozil] | – |
| 50% | – | COC1=C(C(=O)O)N2C(=O)[C@@H](NC(=O)[C@H](N)C3=CCC=CC3)[C@H]2SC1 [Cefroxadine] | – |
| 50% | Negligible | CC(C)(O/N=C(\C(=O)N[C@@H]1C(=O)N2C(C(=O)[O-])=C(C[n+]3ccccc3)CS[C@H]12)c1csc(N)n1)C(=O)O [Ceftazidime] | – |
| 39% | – | Nc1nc(/C(=C/CC(=O)O)C(=O)N[C@@H]2C(=O)N3C(C(=O)O)=CCS[C@H]23)cs1 [Ceftibuten] | – |
| 50% | Negligible (16%) | CO/N=C(\C(=O)N[C@@H]1C(=O)N2C(C(=O)O)=CCS[C@H]12)c1csc(N)n1 [Ceftizoxime] | – |
| 40% | Negligible (4.5%) | CO/N=C(\C(=O)N[C@@H]1C(=O)N2C(C(=O)O)=C(CSc3nc(=O)c(=O)[nH]n3C)CS[C@H]12)c1csc(N)n1 [Ceftriaxone] | – |
| – | 20% | CO/N=C(\C(=O)N[C@@H]1C(=O)N2C(C(=O)O)=C(COC(N)=O)CS[C@H]12)c1ccco1 [Cefuroxime] | – |
| 50% | – | CC(=O)OCC1=C(C(=O)O)N2C(=O)[C@@H](NC(=O)CC#N)[C@H]2SC1 [Cephacetrile] | – |
| 50-75% | 30% | CC1=C(C(=O)O)N2C(=O)[C@@H](NC(=O)[C@H](N)c3ccccc3)[C@H]2SC1 [Cephalexin] | – |
| 50% | – | CC(=O)OCC1=C(C(=O)O)N2C(=O)[C@@H](NC(=O)Cc3cccs3)[C@H]2SC1 [Cephalothin] | – |
| 30-40% | – | CN(C)CCn1nnnc1SCC1=C(C(=O)O)N2C(=O)[C@@H](NC(=O)Cc3csc(N)n3)[C@H]2SC1 [Defotiam] | – |
